According to patent publication US8772005B2, “Laccases, compositions and methods of use” (Danisco US Inc., priority 2006, dated 2014):

Tested on: Thielavia sp. laccase
Assay: Bleaching of solubilized indigo by laccase/mediator combinations, 96-well microtitre plate, absorbance at 600 nm
Format: biochemical
Procedure: An assay for the bleaching of the solubilized indigo substrate by laccase/mediator combinations was performed in a 96-well microtitre plate as follows
A saturated solution of indigo in N-methylpyrrolidone (NMP) was prepared by stirring indigo (30 mg) in NMP (10 ml) at room temperature for 5 hours. The NMP solution was diluted 10-fold into an aqueous buffer solution resulting in a blue solution. For example, dilution into 50 mM sodium acetate buffer at pH 5, or 50 mM sodium phosphate buffer at pH 7. Solutions were shaken well immediately before use.
The assay for the bleaching of the solubilized indigo substrate was performed in a 96-well microtitre plate whereby each well received the soluble indigo solution in 50 mM sodium acetate buffer at pH 5 (180 uL), laccase (10 ppm enzyme) and mediator solution (from a 20 mM stock solution in methanol). The total volume of each well was adjusted to 200 uL with deionzed water. A control containing laccase only was run in duplicate. The plate was sealed and incubated at 50° C. for 2 hours at 800 rpm on a heated agitator (Thermomixer, Eppendorf). Following this period, the plates were unsealed and a solution of ascorbic acid (20 uL of a 10% aqueous solution) added to each well in order to reduce the oxidized forms of the mediators. The extent of indigo bleaching was then assessed by determining the absorbance for each well at 600 nm using a microtitre plate reader. The lower the absorbance reading, the greater the extent of indigo bleaching.
Laccases derived from Myceliophtora (Denilite® II, Novozymes, Bagsvaerd, Denmark), Thielavia (Ecostone LCC10, AB enzymes, Darmstadt, Germany) and Cerrena sp. were assessed for their ability to bleach solubilized indigo in conjunction with low molecular weight mediators at two pH values.

Structure (SMILES) | effectiveness of mediator for indigo bleaching (in words) (mediator concentration 50 uM) | effectiveness of mediator for indigo bleaching (in words) (mediator concentration 500 uM)
CCn1c(=NN=c2sc3cc(S(=O)(=O)O)ccc3n2CC)sc2cc(S(=O)(=O)O)ccc21 [ABTS] | most effective mediator | most effective mediator
COc1cc(C(=O)O)cc(OC)c1O [Syringic acid, syringic acid] | bleached soluble indigo no more effectively than the control condition | –
